According to patent publication US12686690B2, “Macrocyclic urea orexin receptor agonists” (Merck Sharp & Dohme LLC, priority 2020, dated 2026):

Target: T1, hOX2R (Homo sapiens, UniProt O43614)
T1 construct: expressed in transfected cells; host or cells: CHO cells (G418 selection)
T1 sequence (O43614 1-444): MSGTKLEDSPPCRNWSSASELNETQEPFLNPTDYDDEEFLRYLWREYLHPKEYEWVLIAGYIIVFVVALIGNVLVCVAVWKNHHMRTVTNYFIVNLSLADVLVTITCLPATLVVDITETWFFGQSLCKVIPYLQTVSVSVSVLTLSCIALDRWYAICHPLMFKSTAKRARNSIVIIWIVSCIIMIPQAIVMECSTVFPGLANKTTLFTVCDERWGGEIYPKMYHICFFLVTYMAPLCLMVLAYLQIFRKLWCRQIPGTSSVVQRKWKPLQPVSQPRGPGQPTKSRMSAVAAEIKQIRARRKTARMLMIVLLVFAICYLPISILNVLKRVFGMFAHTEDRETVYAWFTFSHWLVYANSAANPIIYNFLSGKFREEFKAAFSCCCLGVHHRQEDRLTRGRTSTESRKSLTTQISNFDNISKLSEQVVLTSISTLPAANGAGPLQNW
Experiment: hOX2R IPone assay (orexin receptor agonism)
Type: cell-based
Settings: IPone readout; for hOX2R_Ipone max %act: maximal activation; for EC50: orexin receptor agonist, read-out: hOX2R_IPone EC50

Row | hOX2R_Ipone max %act | EC50 | SMILES
1 | 98.9% | 23.4 nM | CCN1C(=O)NC(CCC(F)(F)F)C(C)/C=C\COc2nc(cn3ccnc23)-c2cccc(c2)[C@H]1C (single isomer, unassigned) [Example 41C]
2 | 101.2% | 6.8 nM | CCN1C(=O)N[C@@H](CCC(F)(F)F)CCCCCOc2nc(cn3ccnc23)-c2cc(ncn2)[C@H]1C [Example 112A, (12R,16R)-13-ethyl-12-methyl-16-(3,3,3-trifluoropropyl)-12,13,16,17,18,19,20,21-octahydro-6,23-(azeno)-11,7-(metheno)imidazo[2,1-c][1,4,8,10,13,15]oxapentaazacyclohenicosin-14(15H)-one]
3 | 102.7% | 0.7 nM | CCN1C(=O)NC(CCC(C)F)CCCCCOc2nc(cn3ccnc23)-c2cc(ncc2OC)[C@H]1C (single isomer, unassigned) [Example 72B]
4 | 94.5% | 2390 nM | CCN1C(=O)N[C@@H](CC(F)(F)F)CCCCOc2nc(cn3ncnc23)-c2cc(ncc2OC)C1C(F)(F)F (stereo partly drawn) [Example 38, (16R)-13-ethyl-8-methoxy-16-(2,2,2-trifluoroethyl)-12-(trifluoromethyl)-12,13,15,16,17,18,19,20-octahydro-14H-6,22-(azeno)-11,7-(metheno) [1,2,4]triazolo[5,1-c][1,4,10,13,15]oxatetra-azacycloicosin-14-one]
5 | 99.9% | 39.2 nM | CCOCC1CCCCCOc2nc(cn3ccnc23)-c2cc(ncc2OC)[C@@H](C)N(CC)C(=O)N1 (single isomer, unassigned) [Example 62A]
6 | 101.1% | 0.78 nM | CCN1C(=O)NC(CCCC(F)F)CCCCCOc2nc(cn3ccnc23)-c2cc(ncc2OC)[C@H]1C (stereo partly drawn) [Example 184, (3R,E)-7-(4,4-difluorobutyl)-4-ethyl-25-methoxy-3-methyl-13-oxa-4,6-diaza-1(6,8)-imidazo[1,2-a]pyrazina-2(4,2)-pyridinacyclotridecaphan-5-one]
7 | 100.9% | 115 nM | CCN1C(=O)NC(CCC(F)(F)F)C(C)/C=C\COc2nc(cn3ccnc23)-c2cccc(c2)[C@H]1C (single isomer, unassigned) [Example 41A]
8 | 100.3% | 34.6 nM | CCN1C(=O)NC(CC2CCC2)CCCCCOc2nc(cn3ccnc23)-c2cc(ncc2OC)[C@H]1C (single isomer, unassigned) [Example 61A]
9 | 99.2% | 78.9 nM | CCN1C(=O)NC(CC2CC2)CCCCCOc2nc(cn3ccnc23)-c2cc(ncc2OC)[C@H]1C (single isomer, unassigned) [Example 55A]
10 | 101.1% | 0.6 nM | CCN1C(=O)NC(CC2CC(F)(F)C2)CCCCCOc2nc(cn3ccnc23)-c2cc(ncc2OC)[C@H]1C (single isomer, unassigned) [Example 69B]
11 | 99.9% | 88.8 nM | CCN1C(=O)NC(CCC(F)(F)F)CC(C)CCOc2nc(cn3ccnc23)-c2cccc(c2)[C@H]1C (single isomer, unassigned) [Example 48B]
12 | 99.1% | 24.2 nM | CCN1C(=O)N[C@@H](CCC(F)(F)F)CCCCCOc2nc(cn3ccnc23)-c2cc(c(C)cn2)C1C (single isomer, unassigned) [Example 92B]
13 | 99.3% | 1 nM | CCN1C(=O)N[C@@H](CCC(F)(F)F)CCCCCOc2nc(cn3ccnc23)-c2cc(ncc2C)[C@H]1C [Example 79, (12R,16R)-13-ethyl-8,12-dimethyl-16-(3,3,3-trifluoro-propyl)-12,13,16,17, 18,19,20,21-octa-hydro-6,23-(azeno)-11,7-(metheno) imidazo[2,1-c][1,4,10, 13,15]oxatetraazacyclo-henicosin-14(15H)-one]
14 | 101% | 2.1 nM | CCN1C(=O)NC(CC2CCOC2)CCCCCOc2nc(cn3ccnc23)-c2cc(ncc2OC)[C@H]1C (single isomer, unassigned) [Example 67B]
15 | 101.7% | 1.7 nM | CCN1C(=O)N[C@@H](CCC(C)(F)F)CCOCCOc2nc(cn3ncnc23)-c2cc(cnc2OC)[C@H]1C [Example 148, (3R,7S,E)-7-(3,3-difluorobutyl)-4-ethyl-22-methoxy-3-methyl-10,13-dioxa-4,6-diaza-1(6,8)-[1,2,4]triazolo[1,5-a]pyrazina-2(3,5)-pyridinacyclotridecaphan-5-one]
16 | 100.7% | 1 nM | CCN1C(=O)N[C@@H](CCC(C)(F)F)CCCCCOc2nc(cn3ccnc23)-c2cc(ncc2OC)[C@H]1C [Example 83, (12R,16R)-16-(3,3-difluorobutyl)-13-ethyl-8-methoxy-12-methyl-12,13,16,17, 18,19,20,21-octa-hydro-6,23-(azeno)-11,7-(metheno) imidazo[2,1-c][1,4,9,13,15]oxatetraazacy-clohenicosin-14(15H)-one]
17 | 103.8% | 3.08 nM | CCN1C(=O)N[C@@H](CCC(F)(F)F)COCCCOc2nc(cn3ncnc23)-c2cc(ncc2OC)[C@H]1C [Example 174, (3R,7S,E)-4-ethyl-25-methoxy-3-methyl-7-(3,3,3-trifluoropropyl)-9,13-dioxa-4,6-diaza-1(6,8)-[1,2,4]triazolo[1,5-a]pyrazina-2(4,2)-pyridinacyclotridecaphan-5-one]
18 | 99.1% | 156 nM | CCN1C(=O)NC(CCC(F)(F)F)C(C)CCCOc2nc(cn3ccnc23)-c2cccc(c2)[C@H]1C (single isomer, unassigned) [Example 42B]
19 | 101.8% | 6.44 nM | CCN1C(=O)NC2CN(CCCOc3nc(cn4ccnc34)-c3cccc(c3)[C@H]1C)CC2(F)F (mixture of isomers) [Example 213, (3R,E)-4-ethyl-7^4,7^4-difluoro-3-methyl-11-oxa-4,6-diaza-1(6,8)-imidazo[1,2-a]pyrazina-7(3,1)-pyrrolidina-2(1,3)-benzenacycloundecaphan-5-one]
20 | 101.7% | 0.61 nM | CCN1C(=O)NC(COCC(F)F)CCCCCOc2nc(cn3ccnc23)-c2cc(ncc2OC)[C@H]1C (mixture of isomers) [Example 190, (3R,E)-7-((2,2-difluoroethoxy)methyl)-4-ethyl-25-methoxy-3-methyl-13-oxa-4,6-diaza-1(6,8)-imidazo[1,2-a]pyrazina-2(4,2)-pyridinacyclotridecaphan-5-one]
21 | 96.86% | 0.74 nM | CCN1C(=O)N[C@@H](CCC(C)(F)F)CCOCCOc2nc(nn3ccnc23)-c2cc(ncc2OC)[C@H]1C [Example 155, (3R,7S,E)-7-(3,3-difluorobutyl)-4-ethyl-25-methoxy-3-methyl-10,13-dioxa-4,6-diaza-1(2,4)-imidazo[2,1-f][1,2,4]triazina-2(4,2)-pyridinacyclotridecaphan-5-one]
22 | 94.8% | 82.6 nM | CCN1C(=O)NCc2nc(cs2)CCOc2nc(cn3ccnc23)-c2cccc(c2)[C@H]1C [Example 22, (R,27E,6^2Z)-10-ethyl-11-methyl-3-oxa-8,10-diaza-6(4,2)-thiazola-2(6,8)-imidazo[1,2-a]pyrazina-1(1,3)-benzenacycloundecaphan-9-one]
23 | 100.2% | 1.41 nM | CCN1Cc2cnc(OC)c(c2)-c2nc(c3nccn3n2)OCCCCC[C@H](CCC(C)(F)F)NC1=O [Example 125, (R,E)-7-(3,3-difluorobutyl)-4-ethyl-22-methoxy-13-oxa-4,6-diaza-1(2,4)-imidazo[2,1-f][1,2,4]triazina-2(3,5)-pyridinacyclotridecaphan-5-one]
24 | 61.55% | 760 nM | CCN1C(=O)N[C@@H](C)/C=C/CC2(CCOCC2)COc2nc(cn3ccnc23)-c2cc(ncc2OC)[C@H]1C [Example 222, (3′R,7'S,7′E,8′E)-4′-ethyl-5′-methoxy-3′,7′-dimethyl-2,3,5,6-tetrahydrospiro[pyran-4,11′-13-oxa-4,6-diaza-1(6,8)-imidazo[1,2-a]pyrazina-2(4,2)-pyridinacyclotridecaphanen]-8′-en-5′-one]
25 | 100.2% | 1.49 nM | CCN1C(=O)N[C@@H](CCC(C)(F)F)CCOCCOc2nc(cn3ncnc23)-c2cc(ncc2C)[C@H]1C [Example 129, (3R,7S,E)-7-(3,3-difluorobutyl)-4-ethyl-25,3-dimethyl-10,13-dioxa-4,6-diaza-1(6,8)-[1,2,4]triazolo[1,5-a]pyrazina-2(4,2)-pyridinacyclotridecaphan-5-one]
26 | 99.9% | 9.9 nM | CCN1C(=O)N[C@@H](CCC(F)(F)F)CCCCOc2nc(nn3ccnc23)-c2cc(cnc2OC)[C@H]1C [Example 46, (3R,7R,E)-4-ethyl-22-methoxy-3-methyl-7-(3,3,3-trifluoropropyl)-12-oxa-4,6-diaza-1(2,4)-imidazo[2,1-f][1,2,4]triazina-2(3,5)-pyridinacyclododecaphan-5-one]
27 | 103.3% | 5.1 nM | CCN1C(=O)NC(C(C)(C)C)CCCCCOc2nc(cn3ccnc23)-c2cc(ncc2OC)[C@H]1C (single isomer, unassigned) [Example 63B]
